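Method: 48-hour compound exposure of cells in 96-well plates, five concentrations, linear interpolation of endpoints. At the GI50, growth is halved.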 The source made the active and inactive calls. No stated cut-off is given here; in the data, active = GI50 up to about 1.1 µM and inactive = higher.
Assays:
Experiment in all cases: inhibition of tumour cell growth, NCI panel, 48 h
[1] = tested on: M14
[2] = tested on: COLO 205
[3] = tested on: HOP-92
[4] = tested on: Malme-3M
[5] = tested on: SF-268
[6] = tested on: KM12
[7] = tested on: LOX IMVI
[8] = tested on: MOLT-4
[9] = tested on: Hs-578T
[10] = tested on: SN12C
[11] = tested on: MDA-MB-435
[12] = tested on: SNB-75
[13] = tested on: SR
[14] = tested on: HT-29
[15] = tested on: NCI-H522
[16] = tested on: SK-MEL-28
[17] = tested on: 786-0
[18] = tested on: BT-549
[19] = tested on: RXF 393

Measured: GI50

O=C(CCN1CCOCC1)Nc1ccc2sc3ccccc3c(=O)c2n1
inactive: [1] 37.8 µM | [2] 25 µM | [3] 45.3 µM | [4] 20.7 µM | [5] 52.2 µM | [6] 50.4 µM | [7] 19.6 µM | [8] > 10 µM | [9] 36.4 µM | [10] 35 µM | [11] 42.4 µM | [12] 19.6 µM | [13] 44.3 µM | [14] > 100 µM | [15] 13.2 µM | [16] 53.5 µM | [17] 31.6 µM | [18] 28.7 µM

Nc1ccc2c(c1)S(=O)(=O)c1cc(O)ccc1O2
inactive: [1] > 100 µM | [2] > 100 µM | [3] > 100 µM | [5] > 100 µM | [19] 48.3 µM | [6] > 100 µM | [7] > 100 µM | [8] > 100 µM | [9] > 100 µM | [10] > 100 µM | [11] > 100 µM | [13] 39.7 µM | [14] > 100 µM | [15] > 100 µM | [16] > 100 µM | [17] > 100 µM | [18] 45.6 µM

Cc1ccc(/N=N/C(=N\c2ccc(Cl)cc2)c2ccc(N(CCC#N)CCC#N)cc2)cc1
inactive: [1] 30.8 µM | [2] 17.4 µM | [3] 46.3 µM | [5] 48.1 µM | [19] 36.8 µM | [6] 19.1 µM | [8] > 100 µM | [9] 33.7 µM | [10] 40.9 µM | [11] 19.1 µM | [12] 60.3 µM | [13] 22 µM | [14] 71.4 µM | [15] 19.4 µM | [16] 85.5 µM | [17] 52 µM | [18] 16.7 µM

CCOC(=O)c1nc2ccccc2nc1Nc1cc(OC)c(OC)c(OC)c1
inactive: [1] > 100 µM | [2] > 100 µM | [3] > 100 µM | [4] > 100 µM | [5] > 100 µM | [6] > 100 µM | [8] > 100 µM | [9] 92.9 µM | [10] > 100 µM | [11] > 100 µM | [12] 43.6 µM | [13] > 100 µM | [14] > 100 µM | [15] > 100 µM | [16] > 100 µM | [17] > 100 µM | [18] > 100 µM

O=S(=O)(NC1CCCCC1)c1ccc2c(c1)OCCOCCOCCOCCO2
inactive: [1] > 100 µM | [2] > 100 µM | [4] > 100 µM | [5] > 100 µM | [6] > 100 µM | [7] > 100 µM | [8] > 100 µM | [9] > 100 µM | [10] > 100 µM | [11] > 100 µM | [12] > 100 µM | [13] > 100 µM | [14] > 100 µM | [15] > 100 µM | [16] > 100 µM | [17] > 100 µM | [18] > 100 µM

CCOC(=O)c1ccc(C(=O)/C(C#N)=C2\CCCN2)[nH]1
inactive: [1] > 100 µM | [2] > 100 µM | [3] > 100 µM | [4] > 100 µM | [5] > 100 µM | [19] 14.8 µM | [6] 55 µM | [7] > 100 µM | [8] 48.2 µM | [9] > 100 µM | [10] > 100 µM | [11] 28.8 µM | [12] 34 µM | [13] 19.6 µM | [14] 72.3 µM | [16] > 100 µM | [17] > 100 µM | [18] > 100 µM

O=C1CCC2(c3ccc(Cl)cc3)Nc3ccncc3N12 (stereo unspecified)
inactive: [1] > 10 µM | [3] > 10 µM | [4] > 10 µM | [5] > 10 µM | [6] > 10 µM | [7] > 10 µM | [8] > 10 µM | [9] > 10 µM | [10] > 10 µM | [11] > 10 µM | [12] > 10 µM | [13] > 10 µM | [14] > 10 µM | [15] > 10 µM | [17] > 10 µM | [18] > 10 µM

O=C(Cn1c(=O)oc2ccc(C(=O)c3cccc(Cl)c3)cc21)c1ccccc1
inactive: [1] > 100 µM | [2] 33.9 µM | [3] 7.14 µM | [4] 63 µM | [5] > 100 µM | [7] > 100 µM | [8] 49.4 µM | [9] > 100 µM | [10] > 100 µM | [11] > 100 µM | [12] 25.1 µM | [13] 36.3 µM | [14] 29.9 µM | [15] > 100 µM | [16] > 100 µM | [17] > 10 µM | [18] 18.1 µM

CC(=O)OCC(C)(COC(C)=O)N1C(=O)C2C3c4ccccc4C(c4ccccc43)C2C1=O (stereo unspecified)
inactive: [1] > 100 µM | [2] > 100 µM | [3] > 100 µM | [5] > 100 µM | [19] 35.6 µM | [6] > 100 µM | [7] > 100 µM | [8] > 100 µM | [9] > 100 µM | [11] > 100 µM | [12] 49.7 µM | [13] > 100 µM | [14] > 100 µM | [17] > 100 µM | [18] > 100 µM

COc1cc([C@@H]2c3cc4c(cc3[C@@H](/N=C/c3ccc(C(=O)O[C@H]5C[C@H]6OC[C@@]6(OC(C)=O)[C@H]6[C@H](OC(=O)c7ccccc7)[C@]7(O)C[C@H](OC(=O)[C@H](OC(=O)c8ccc(/C=N/[C@@H]9c%10cc%11c(cc%10[C@@H](c%10cc(OC)c(O)c(OC)c%10)[C@H]%10C(=O)OC[C@@H]%109)OCO%11)cc8)[C@@H](NC(=O)c8ccccc8)c8ccccc8)C(C)=C([C@@H](OC(C)=O)C(=O)[C@]56C)C7(C)C)cc3)C3COC(=O)C32)OCO4)cc(C)c1O (stereo partly specified)
inactive: [1] 6.49 µM | [2] 19.6 µM | [4] > 24 µM | [5] > 31.5 µM | [19] 2.96 µM | [6] 22.3 µM | [7] 22.9 µM | [8] 16.3 µM | [9] > 46 µM | [10] 18.8 µM | [11] 2.33 µM | [12] 4.25 µM | [13] 8.02 µM | [14] 10.9 µM | [15] 9.06 µM | [16] > 18.1 µM | [17] 7.55 µM | [18] 49.7 µM

O=C1CSC2=NC3=C(COC/C3=C\c3ccc(F)cc3)C(c3ccc(F)cc3)N12 (stereo unspecified)
inactive: [1] 35.5 µM | [2] 42.8 µM | [3] 93.5 µM | [5] > 100 µM | [19] 59.8 µM | [6] 75 µM | [7] 52 µM | [8] 20.6 µM | [9] > 100 µM | [10] > 100 µM | [11] 65.2 µM | [12] > 100 µM | [13] 20.7 µM | [15] 28.2 µM | [17] 59.4 µM | [18] > 100 µM

CN(C)CCOc1ccc(I)cc1Cc1ccccc1
inactive: [1] 2.66 µM | [2] 11.9 µM | [4] 15.9 µM | [5] 13.2 µM | [19] 15 µM | [6] 13.7 µM | [7] 5.2 µM | [8] 5.21 µM | [9] 11.1 µM | [10] 12.1 µM | [11] 4.27 µM | [12] 1.52 µM | [13] 2.65 µM | [14] 4.36 µM | [15] 11.9 µM | [16] 4.74 µM | [17] 10.7 µM | [18] 14 µM

CC[C@@H](/C=C\CCC1(C[C@H](O)CCC=C(C)C)OCCO1)O[Si](C(C)C)(C(C)C)C(C)C
inactive: [1] 26.5 µM | [2] 19.8 µM | [3] 28.5 µM | [5] 21.6 µM | [19] 17.3 µM | [6] 37.1 µM | [7] 20.4 µM | [8] 19.3 µM | [9] 37.3 µM | [10] 18 µM | [11] 35 µM | [12] 29.5 µM | [13] 21.2 µM | [14] 25 µM | [15] 20.2 µM | [16] 26.7 µM | [17] 17.5 µM | [18] 30.5 µM

Cc1c(-c2ccccc2)[nH]c2cn[nH]c(=O)c12
inactive: [1] > 100 µM | [2] > 100 µM | [3] > 100 µM | [4] > 100 µM | [5] > 100 µM | [6] 83.2 µM | [7] 70.6 µM | [8] 83.2 µM | [9] 74.6 µM | [11] > 100 µM | [13] 88.7 µM | [14] > 100 µM | [15] 86.1 µM | [16] > 100 µM | [17] > 100 µM | [18] 75 µM

CCOC(=O)C1C(c2ccc(OC)cc2)c2c(n[nH]c2O)CC1(C)O (stereo unspecified)
inactive: [1] > 100 µM | [2] > 100 µM | [3] > 100 µM | [4] > 100 µM | [5] > 100 µM | [6] > 100 µM | [7] > 100 µM | [8] > 100 µM | [9] > 100 µM | [10] > 100 µM | [11] > 100 µM | [12] > 100 µM | [13] > 100 µM | [14] > 100 µM | [15] > 100 µM | [16] > 100 µM | [17] > 100 µM | [18] > 100 µM
